Reference: patent publication US20120009280A1, “METHOD OF REDUCING THE RATE OF DEGRADATION OF A BIOLOGICAL MATERIAL” (Bio-Energy Ingredients Limited, priority 2009, published 2012)
“And” between values parts separate entries of the source, which are not always exact repeats. Identical values can stand only once.

Tests used:
Assay type in all cases: cell-based
Escherichia coli = assay: Spiking test of agar plates with Escherichia coli (kill versus inhibition); details: for Individual count / Mean count: spiking test
Method: (§1) When performing total viable counts (TVCs), the agar plates (when they were molten and containing 1 ml of the test sample dilution) were spiked with bacterial organisms (E. Coli and P. aeruginosa) of a known concentration. If the organisms grew, this would indicate that the conditions in the agar plate had not inhibited them. A control with no sample was run at the same time. […]
(§2) The plates were incubated at 30-35° C. for approximately 24 hours after which time the bacterial colonies were counted.
. […] This was performed in duplicate.

Pseudomonas aeruginosa = assay: Spiking test of agar plates with Pseudomonas aeruginosa (kill versus inhibition); details: treated sample with 5% (w/w) calcium oxide, Day 9, all sample dilutions
Method: as §1, §2

total micro-organism = assay: Total microbial (plate) count of spent brewer's / wet distiller's grains stored at ambient temperature; details: dose 10% w/w; distiller's grains not de-watered, Examples 16-18
[1] = system: Escherichia coli NCIMB 8545; assay: Antimicrobial efficacy test of saturated aqueous solutions; details: for Corrected count cfu/mL: saturated aqueous solution, inoculum (t = 0) 6.95 × 10^8, replicates A, B; for colonies on plates: saturated solution
Method: Escherichia coli NCIMB 8545 was subcultured onto TSA and the plates incubated at 30-35° C. for approximately 24 hours. After this time, surface growth was harvested and directly suspended into sterile distilled water and standardised to give 30-45% light transmission at 520 nm on a Jenway 6105 Spectrophotometer—an approximate yield of 2 (10^8) cfu/ml. A 0.1 ml aliquot of this suspension was inoculated into 9.9 ml of CaOH solution. This was performed in duplicate. At the same time, 1 ml of bacterial suspension was removed from the original stock suspension and placed into 9 ml PBS to perform the initial (Time 0) count. The inoculated calcium hydroxide suspensions were then shaken for one hour at room temperature. After this time 1 ml samples of the bacterial suspension were removed from the test containers and placed into 9 ml PBS. For each diluted sample, further serial ten-fold dilutions in PBS down to 10^−5 were made and then used to prepare duplicate 1 ml pour plate counts in TSA. Pour plates were also prepared from the neat (undiluted) sample. The plates were incubated at 30-35° C. for approximately 24 hours. Following incubation, the plates were counted. Optimally, plates with counts of 30-300 colonies were used to calculate the counts at each sampling time.
Escherichia coli NCIMB 8545 was subcultured onto TSA and the plates incubated at 30-35° C. for approximately 24 hours. After this time, surface growth was harvested and directly suspended into sterile distilled water and standardised to give 30-45% light transmission at 520 nm on a Jenway 6105 Spectrophotometer—an approximate yield of 2×10^8 cfu/ml. […] […]. At the same time, 1 ml of bacterial suspension was removed from the original stock suspension and placed into 9 ml PBS to perform the initial (Time 0) count. The inoculated suspensions were then shaken for one hour at room temperature. After both 10 minutes and one hour, 1 ml samples of the bacterial suspension were removed from the test containers and placed into 9 ml PBS. For each diluted sample, further serial ten-fold dilutions in PBS down to 10^−6 were made and then used to prepare duplicate 1 ml pour plate counts in TSA. Pour plates were also prepared from the neat (undiluted) sample. The plates were incubated at 30-35° C. for approximately 24 hours.
(§3) Following incubation, the plates were counted. Optimally, plates with counts of 30-300 colonies were used to calculate the counts at each sampling time.
(§4) Escherichia coli NCIMB 8545 and Salmonella abony NCTC 6017 were subcultured onto Tryptone Soya Agar (TSA) and the plates incubated at 30-35° C. for approximately 24 hours. Clostridium difficile ATCC 43255 was subcultured onto Fastidious Anaerobe Agar (FAA)+5% defibrinated horse blood and the plates incubated at 30-35° C. for approximately 48 hours. After this time, surface growth was harvested and directly suspended into sterile distilled water and standardised to give 30-45% light transmission at 520 nm on a Jenway 6105 Spectrophotometer—an approximate yield of 2×10^8 cfu/ml. […] […]. At the same time, 1 ml of bacterial suspension was removed from the original stock suspensions and placed into 9 ml PBS to perform the initial (Time 0) count. The inoculated suspensions were then shaken for ten minutes at room temperature. After 1 and 10 minutes, 1 ml samples of the bacterial suspensions were removed from the test containers and placed into 9 ml PBS. For each diluted sample, further serial ten-fold dilutions in PBS down to 10^−5 were made and then used to prepare duplicate 1 ml pour plate counts in TSA. Pour plates were also prepared from the neat (undiluted) sample. For Clostridium difficile, 0.1 ml spread plates were prepared on FAA instead of 1 ml pour plates due to the presence of blood in the agar. The plates were incubated at 30-35° C. for approximately 24 hours (48 hours for Clostridium difficile).

[2] = system: Clostridium difficile ATCC 43255; assay: as above; details: for Corrected count cfu/mL: saturated aqueous solution, inoculum (t = 0) 8.20 × 10^7, replicates A, B; for reduction: saturated solution 8.35 g/L (0.037 M)
Method: as §4, §3

[3] = system: Salmonella abony NCTC 6017; assay: as above
Method: At the same time, 1 ml of bacterial suspension was removed from the original stock suspensions and placed into 9 ml PBS to perform the initial (Time 0) count. The inoculated suspensions were then shaken for ten minutes at room temperature. After 1 and 10 minutes, 1 ml samples of the bacterial suspensions were removed from the test containers and placed into 9 ml PBS. For each diluted sample, further serial ten-fold dilutions in PBS down to 10^−5 were made and then used to prepare duplicate 1 ml pour plate counts in TSA. Pour plates were also prepared from the neat (undiluted) sample. For Clostridium difficile, 0.1 ml spread plates were prepared on FAA instead of 1 ml pour plates due to the presence of blood in the agar. The plates were incubated at 30-35° C. for approximately 24 hours (48 hours for Clostridium difficile).
as §3

[4] = 10 minutes incubation, Example 13
[5] = 10 minutes incubation, time 0 count 4.00×10^6 cfu/ml, Example 12
[6] = one hour incubation, time 0 count 4.00×10^6 cfu/ml, Example 12
[7] = E. coli NCIMB 8545, dilution −1 in PBS
[8] = E. coli NCIMB 8545, dilution −2 in PBS
[9] = E. coli NCIMB 8545, dilution −3 in PBS
[10] = E. coli NCIMB 8545, dilution −4 in PBS
[11] = E. coli NCIMB 8545, dilution −5 in PBS
[12] = E. coli NCIMB 8545, saturated solution Neat (control mean 215)

For `[O]=[Ca]` [calcium oxide], the “inhibitory effect on test organism in spiking test” value (Escherichia coli; treated sample with 5% (w/w) calcium oxide, Day 9, all sample dilutions) was “did not demonstrate an inhibitory effect”, the “inhibitory effect on test organism in spiking test” value (Pseudomonas aeruginosa) was “did not demonstrate an inhibitory effect” and the “preservation time with total microbial counts <100 cfu/g” value (total micro-organism) was “≧9 weeks”. The “preservation time with total microbial counts <1000 cfu/g” value (total micro-organism) was “≧9 weeks”.

`[Ca+2].[O-]CC(O)CO.[O-]CC(O)CO` [calcium diglyceroxide] was tested, and the “Corrected count cfu/mL” value ([1]; one minute treatment) was 0 cfu/mL and 1 cfu/mL, the reduction ([1]; saturated solution 8.35 g/L (0.037 M), one minute treatment) was at least 4 log10 and the colonies on plates [1, 4] was “No colonies”. For the same molecule, the colonies on plates [1, 5] was “No colonies”, the colonies on plates [1, 6] was “No colonies” and the “Corrected count cfu/mL” value ([2]; one minute treatment) was 1.30 × 10^3 cfu/mL and 7.00 × 10^2 cfu/mL. For the same molecule, the “Corrected count cfu/mL” value ([2]; ten minute treatment) was 85 cfu/mL and 50 cfu/mL, the reduction ([2]; one minute treatment) was at least 4 log10 and the reduction ([2]; ten minute treatment) was 6 log10.

`[Ca+2].[OH-].[OH-]` [calcium hydroxide] was tested, and the Individual count (Escherichia coli; [7]) was 197 and 209, the Mean count (Escherichia coli; [7]) was 203 and the Individual count (Escherichia coli; [8]) was 194 and 203. For the same molecule, the Mean count (Escherichia coli; [8]) was 199, the Individual count (Escherichia coli; [9]) was 192 and 240 and the Mean count (Escherichia coli; [9]) was 216. For the same molecule, the Individual count (Escherichia coli; [10]) was 194 and 196, the Mean count (Escherichia coli; [10]) was 195 and the Individual count (Escherichia coli; [11]) was 235 and 194. The Mean count (Escherichia coli; [11]) was 215, the Individual count (Escherichia coli; [12]) was 216 and 191 and the Mean count (Escherichia coli; [12]) was 205. For the same molecule, the “Corrected count cfu/mL” value ([1]; one minute treatment) was 1.35 × 10^6 cfu/mL and 1.23 × 10^5 cfu/mL, the colonies on plates [1, 4] was “No colonies” and the colonies on plates [1, 5] was “No colonies”. For the same molecule, the colonies on plates [1, 6] was “No colonies”, the “Corrected count cfu/mL” value ([3]; saturated aqueous solution, one minute treatment, inoculum (t = 0) 7.00 × 10^8, replicates A, B) was 59 cfu/mL and 11 cfu/mL and the colonies on plates ([3]; saturated solution, 10 minutes incubation) was “No colonies”. The “Corrected count cfu/mL” value ([2]; one minute treatment) was 8.50 × 10^2 cfu/mL and 9.50 × 10^2 cfu/mL and the “Corrected count cfu/mL” value ([2]; ten minute treatment) was 1.10 × 10^2 cfu/mL and 1.20 × 10^2 cfu/mL.
